Consider 3 compounds from ChEMBL document CHEMBL1148896, “BI-32169, a bicyclic 19-peptide with strong glucagon receptor antagonist activity from Streptomyces sp” (J Nat Prod, 2004).

A word on the IC50: it is the concentration at which inhibition is half-maximal.

Bridge positions count the residues as written; N and C are the ends. Peptide text beside a SMILES is read from it. I, II: the chains in the order shown.

The test deals with Glucagon receptor (Homo sapiens, UniProt P47871). Kind of test: Antagonist activity at human glucagon receptor expressed in BHK21 cells assessed as inhibition of glucagon-induced cAMP elevation by RIA. It is filed as functional, cell-based, BHK-21.
Glucagon receptor, sequence (P47871 whole entry): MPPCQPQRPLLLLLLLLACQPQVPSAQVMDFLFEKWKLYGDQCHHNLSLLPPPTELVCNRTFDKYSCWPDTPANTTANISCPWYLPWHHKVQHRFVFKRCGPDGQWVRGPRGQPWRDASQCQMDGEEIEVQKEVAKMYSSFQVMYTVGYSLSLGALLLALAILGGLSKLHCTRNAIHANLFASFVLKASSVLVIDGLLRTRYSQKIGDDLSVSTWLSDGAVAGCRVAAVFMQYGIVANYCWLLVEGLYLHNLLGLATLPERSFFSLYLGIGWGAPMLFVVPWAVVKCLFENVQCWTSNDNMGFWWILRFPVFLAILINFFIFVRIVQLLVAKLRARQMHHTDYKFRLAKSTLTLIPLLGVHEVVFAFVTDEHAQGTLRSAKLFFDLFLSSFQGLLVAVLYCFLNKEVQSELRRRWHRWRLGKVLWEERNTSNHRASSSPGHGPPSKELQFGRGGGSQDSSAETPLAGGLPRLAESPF
Take `CC[C@H](C)[C@@H]1NC(=O)[C@@H]2CC(=O)NCC(=O)N[C@@H](CC(C)C)C(=O)N3CCC[C@H]3C(=O)N[C@@H](Cc3c[nH]c4ccccc34)C(=O)NCC(=O)N[C@@H](CSSC[C@@H](C(=O)O)NC(=O)[C@H](C)NC(=O)[C@H](Cc3c[nH]c4ccccc34)NC(=O)[C@@H]3CCCN3C(=O)[C@H]([C@@H](C)O)NC(=O)[C@H](CC(N)=O)NC(=O)[C@H](Cc3c[nH]c4ccccc34)NC(=O)CNC(=O)[C@@H]3CCCN3C1=O)C(=O)N1CCC[C@H]1C(=O)N[C@@H](CO)C(=O)N2` (GLPWGCPSDIPGWNTPWAC-OH; disulfide 6-19; lactam N-9): the IC50 was 440 nM.

With `CC[C@H](C)[C@@H]1NC(=O)C[C@@H]2NC(=O)[C@H](CO)NC(=O)[C@@H]3CCCN3C(=O)[C@H](CSSC[C@@H](C(=O)OC)NC(=O)[C@H](C)NC(=O)[C@H](Cc3c[nH]c4ccccc34)NC(=O)[C@@H]3CCCN3C(=O)[C@H]([C@@H](C)O)NC(=O)[C@H](CC(N)=O)NC(=O)[C@H](Cc3c[nH]c4ccccc34)NC(=O)CNC(=O)[C@@H]3CCCN3C1=O)NC(=O)CNC(=O)[C@H](Cc1c[nH]c3ccccc13)NC(=O)[C@@H]1CCCN1C(=O)[C@H](CC(C)C)NC(=O)CNC2=O` (I: IPGWNTPWAC-OMe / II: cyclo(CPSDGLPWG); disulfide I:10-II:1; amide I:N-II:4), the IC50 is 320 nM.

Consider `CC1CC(=O)c2c(cc3c(-c4c(O)cc(O)c5c(O)c6c(cc45)OC(C)CC6=O)c(O)cc(O)c3c2O)O1` (stereo not drawn) [CEPHALOCHROMIN], for which the concentration for half-maximal inhibition (IC50) was found to be 20000 nM.
